According to US9220676B2, “Injectable in-situ crosslinked hydrogel and methods of making and using thereof” (Bioregen Biomedical (Changzhou) Co., Ltd., priority 2008, dated 2015):

Assay: Release of corticosteroid from drug-containing in-situ crosslinked sodium hyaluronate hydrogel into phosphate buffer solution
Assay type: physicochemical
Details: for cumulative releasing percentage of the drug: 0.2 mL gel in 10 mL phosphate buffer solution, 37° C., 100 rpm, UV absorption of supernatant; for release of the drug from the gel (in words): summary of the release table
Procedure: Into the 10 mL thiolated sodium hyaluronate solution prepared in Example 1 (pH 7.0, 1.0% w/v), 0.1-10 mg one type of corticosteroid (e.g. Beclomethasone, Beclomethasone dipropionate, Budesonide; Dexamethasone, Prednisolone or Prednisone) was added. The solution was mix uniformly and immediately filled into a 1 mL syringe which was then sealed and kept at room temperature. It was observed after one week that the solution sealed in the syringe had lost fluidity to form a gel.
0.2 mL gel containing drug as described above was filled into a 15 mL plastic centrifugal tube; 10 mL phosphate buffer solution was added into the centrifugal tube which was then put in an incubator (37° C., 100 rpm); ultraviolet absorption of the drug in the supernatant was recorded at a certain time interval.
The cumulative releasing percentages of the drug at different times are as below: […]

Structure (SMILES)	cumulative releasing percentage of the drug (day 7)	cumulative releasing percentage of the drug (day 14)	cumulative releasing percentage of the drug (day 21)	release of the drug from the gel (in words)
CCC(=O)OCC(=O)[C@@]1(OC(=O)CC)[C@@H](C)C[C@H]2[C@@H]3CCC4=CC(=O)C=C[C@]4(C)[C@@]3(Cl)[C@@H](O)C[C@@]21C [Beclomethasone dipropionate]	<1%	<1%	<1%	release was rarely detected
C[C@H]1C[C@H]2[C@@H]3CCC4=CC(=O)C=C[C@]4(C)[C@@]3(Cl)[C@@H](O)C[C@]2(C)[C@@]1(O)C(=O)CO [Beclomethasone]	61%	82%	91%	–
C[C@]12C=CC(=O)C=C1CC[C@@H]1[C@@H]2[C@@H](O)C[C@@]2(C)[C@H]1CC[C@]2(O)C(=O)CO [Prednisolone]	95%	100%	100%	released substantially completely in 7 days
C[C@]12C=CC(=O)C=C1CC[C@@H]1[C@@H]2C(=O)C[C@@]2(C)[C@H]1CC[C@]2(O)C(=O)CO [Prednisone]	82%	95%	100%	–
